The values below come from patent publication US7872052B2, “Use of heterocyclic compounds as SCCE inhibitors” (Arexis AB, priority 2003, dated 2011).

The experiment deals with T1, Recombinant active human SCCE (Homo sapiens, UniProt P49862).
T1 construct: made in house; host or cells: murine C127 cells transfected with a BPV vector (murine MT promoter)
As to the kind of experiment: SCCE Inhibitor Test (chromogenic substrate S-2586, absorbance at 405 nm). It counts as biochemical. To be noted: for IC50: 10 min preincubation, 1 mM S-2586, 60 min, 37° C, pH 7.2; for remaining activity at 10 µM / remaining activity at 1 µM / remaining activity at 5 µM: 1 h; for remaining activity at 1 µM: 1 μM compound; for remaining activity at 5 µM: 5 μM compound. The protocol: Recombinant active human SCCE was produced essentially as described in WO 95/00651. The cDNA encoding human SCCE was introduced into a BPV vector under the control of the murine MT promoter and expressed in transfected C127 cells. The produced SCCE was purified and activated using immobilized bovine trypsin.
SCCE activity was determined using the chromogenic substrate S-2586 (MeO-Suc-Arg-Pro-Tyr-pNA) (Chromogenix, Mölndal, Sweden) by measurement of the change in absorbance at 405 nm essentially as described in WO 95/00651. Inhibitors were dissolved in DMSO and added to the reaction mixture (10 mM sodium phosphate, pH 7.2, 0.5 M NaCl, 2.5 μg/ml SCCE) at appropriate concentrations followed by incubation for 10 min before the start of the enzymatic reaction by subsequent addition of the substrate S-2586 to a final concentration of 1 mM. The change in absorbance at 405 nm after 60 min was recorded and used as a measure of SCCE activity. The assay temperature was 37° C. […] The IC50 values were used to identify compounds as SCCE inhibitors of the invention.

T1 sequence (P49862 30-253): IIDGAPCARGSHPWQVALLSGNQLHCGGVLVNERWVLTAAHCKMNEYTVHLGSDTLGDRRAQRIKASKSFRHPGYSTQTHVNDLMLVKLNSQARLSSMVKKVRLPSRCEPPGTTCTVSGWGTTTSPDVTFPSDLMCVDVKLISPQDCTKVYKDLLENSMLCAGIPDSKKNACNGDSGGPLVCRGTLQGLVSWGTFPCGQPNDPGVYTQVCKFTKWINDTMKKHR

As a reminder, the IC50 is the midpoint of a concentration-inhibition curve. A word on the remaining activity: it is the share of the control activity or signal that is left under treatment. Turning to `O=c1oc(-c2ccccc2)nc2ccccc12` [Compound I-1, 2-Phenyl-benzo[d][1,3]oxazin-4-one], the IC50 stood at 2000 nM. Moreover, the remaining activity at 10 µM (10 μM compound) was 27%.
In the case of `O=c1oc(-c2ccc([N+](=O)[O-])cc2Cl)nc2cc(Cl)ccc12` [Compound I-2, 7-Chloro-2-(2-chloro-4-nitro-phenyl)-benzo[d][1,3]oxazin-4-one], the 50% inhibitory concentration (IC50) came to 100 nM, the remaining activity at 1 µM was found to be 15% and the remaining activity at 5 µM was found to be 0%.
The like results for `O=c1oc(-c2cccs2)nc2cc(Cl)ccc12` [Compound I-4, 7-Chloro-2-thiophen-2-yl-benzo[d][1,3]oxazin-4-one] were, in that order, 250 nM, 22% and 5%.
For the molecule `COc1cc2nc(-c3ccc([N+](=O)[O-])cc3Cl)oc(=O)c2cc1OC` [Compound I-5, 2-(2-Chloro-4-nitro-phenyl)-6,7-dimethoxy-benzo[d][1,3]oxazin-4-one], the IC50 stood at 500 nM. In addition, where the note is “10 μM compound”, the remaining activity at 10 µM amounted to 9%.
The like results for `O=c1oc(-c2cc([N+](=O)[O-])ccc2Cl)nc2ccccc12` [Compound I-6, 2-(2-Chloro-5-nitro-phenyl)-benzo[d][1,3]oxazin-4-one] were, in that order, 500 nM and 22%.
Consider `CN(C)c1nc2cc(Cl)cc(Cl)c2c(=O)o1` [Compound I-7], for which the IC50 was determined as 2000 nM. Moreover, under “10 μM compound”, the “% SCCE activity” value is given as 7%.
`O=c1oc(-c2ccncc2)nc2ccccc12` [Compound I-8, 2-Pyridin-4-yl-benzo[d][1,3]oxazin-4-one]: the IC50 came to 5000 nM. Further, the remaining activity at 10 µM (10 μM compound) was found to be 24%.
For `O=c1oc(-c2cccs2)nc2ccccc12` [Compound I-9, 2-Thiophen-2-yl-benzo[d][1,3]oxazin-4-one] the same measures were 5000 nM and 23%.
With `O=c1oc(-c2ccccc2O)nc2ccccc12` [Compound I-10, 2-(2-Hydroxy-phenyl)-benzo[d][1,3]oxazin-4-one], the IC50 is 5000 nM, the remaining activity at 1 µM worked out at 71% and the remaining activity at 5 µM stood at 47%. Further, the remaining activity at 10 µM (10 μM compound) is 32%.
For `COc1cc2nc(-c3ccccc3F)oc(=O)c2cc1OC` [Compound I-11, 2-(2-Fluoro-phenyl)-6,7-dimethoxy-benzo[d][1,3]oxazin-4-one], the IC50 worked out at 700 nM, the remaining activity at 1 µM was found to be 39% and the remaining activity at 5 µM was found to be 8%.
For `CCc1ccc(-c2nc3cc(Cl)ccc3c(=O)o2)cc1` [Compound I-12, 7-Chloro-2-(4-ethyl-phenyl)benzo[d][1,3]oxazin-4-one] the same measures were 2000 nM, 33% and 15%.
The like results for `Cc1cc(-c2nc3cc(Cl)ccc3c(=O)o2)ccc1[N+](=O)[O-]` [Compound I-13, 7-Chloro-2-(3-methyl-4-nitro-phenyl)-benzo[d][1,3]oxazin-4-one] were, in that order, 2000 nM, 56% and 36%.
Regarding `COc1cc2nc(-c3ccc(NC(C)=O)cc3)oc(=O)c2cc1OC` [Compound I-14, N-[4-(6,7-Dimethoxy-4-oxo-4H-benzo[d][1,3]oxazin-2-yl)-phenyl]-acetamide], the IC50 was 5000 nM. In addition, the remaining activity at 10 µM (10 μM compound) was found to be 52%.
Consider `CC(=O)Oc1ccc(-c2nc3ccccc3c(=O)o2)cc1` [Compound I-15, Acetic acid 4-(4-oxo-4H-benzo[d][1,3]oxazin-2-yl)-phenyl ester], for which the IC50 turned out to be 5000 nM, the remaining activity at 1 µM was determined as 52% and the remaining activity at 5 µM turned out to be 22%.
As for `COc1cc2nc(-c3ccccc3Cl)oc(=O)c2cc1OC` [Compound I-16, 2-(2-Chloro-phenyl)-6,7-dimethoxy-benzo[d][1,3]oxazin-4-one], the IC50 is 170 nM and the remaining activity at 1 µM was found to be 15%. Besides, where the note is “10 μM compound”, the remaining activity at 10 µM stood at 3%.
Take `O=c1nc(-c2cccs2)oc2ccc(Cl)cc12` [Compound I-17, 6-Chloro-2-thiophen-2-yl-benzo[e][1,3]oxazin-4-one]: the IC50 is 320 nM, the remaining activity at 1 µM was 18% and the remaining activity at 5 µM came out at 4%.
Regarding `O=c1nc(-c2ccco2)oc2ccc(Cl)cc12` [Compound I-18, 6-Chloro-2-furan-2-yl-benzo[e][1,3]oxazin-4-one], the IC50 worked out at 600 nM, the remaining activity at 1 µM was 26% and the remaining activity at 5 µM is 7%.
For `O=c1nc(-c2ccccc2Cl)oc2ccccc12` [Compound I-19, 2-(2-Chlorophenyl)-benzo[e][1,3]oxazin-4-one] the same measures were 4000 nM, 76% and 44%.
With `O=c1nc(-c2cccs2)oc2ccccc12` [Compound I-20, 2-Thiophen-2-yl-benzo[e][1,3]oxazin-4-one], the remaining activity at 1 µM turned out to be 54% and the remaining activity at 5 µM worked out at 16%.
For `O=c1nc(-c2ccco2)oc2ccccc12` [Compound I-21, 2-Furan-2-yl-benzo[e][1,3]oxazin-4-one] the same measures were 47% and 16%.
As to `CCc1cc2c(=O)oc(-c3ccccc3F)nc2s1` [II-1, 6-Ethyl-2-(2-fluoro-phenyl)-thieno[2,3-d][1,3]oxazin-4-one], the IC50 was determined as 70 nM, the remaining activity at 1 µM stood at 0% and the remaining activity at 5 µM was 0%.
`Cc1cc2c(=O)oc(-c3cccc4ccccc34)nc2s1` [II-2, 6-Methyl-2-naphtalen-1-yl-thieno[2,3-d][1,3]oxazin-4-one]: the IC50 came out at 50 nM. For the same molecule, the remaining activity at 10 µM (10 μM compound) was found to be 4%.
Turning to `CCc1cc2c(=O)oc(-c3ccccc3C)nc2s1` [II-3, 6-Ethyl-2-o-tolyl-thieno[2,3-d][1,3]oxazin-4-one], the IC50 turned out to be 150 nM, the remaining activity at 1 µM was 3% and the remaining activity at 5 µM came out at 0%.
As for `CCc1cc2c(=O)oc(-c3ccc(F)cc3)nc2s1` [II-4, 6-Ethyl-2-(4-fluoro-phenyl)-thieno[2,3-d][1,3]oxazin-4-one], the IC50 was 300 nM, the remaining activity at 1 µM turned out to be 15% and the remaining activity at 5 µM is 8%.
Consider `O=c1oc(-c2ccccc2Cl)nc2ccsc12` [II-5, 2-(2-chloro-phenyl)-4H-thieno[3,2-d][1,3]oxazin-4-one], for which the IC50 worked out at 500 nM. The remaining activity at 10 µM (10 μM compound) amounted to 1%.
The like results for `O=c1oc(-c2ccccc2)nc2ccsc12` [II-6, 2-phenyl-4H-thieno[3,2-d][1,3]oxazin-4-one] were, in that order, 1000 nM and 9%.
Turning to `Cc1sc2nc(-c3ccco3)oc(=O)c2c1C` [II-7, 2-Furan-2-yl-5,6-dimethyl-thieno[2,3-d][1,3]oxazin-4-one], the IC50 stood at 1500 nM, the remaining activity at 1 µM was 50% and the remaining activity at 5 µM was found to be 13%.
With `O=c1oc(-c2ccc(F)cc2)nc2ccsc12` [II-8, 2-(4-fluoro-phenyl)-4H-thieno[3,2-d][1,3]oxazin-4-one], the IC50 is 1000 nM. In addition, under “10 μM compound”, the remaining activity at 10 µM is 10%.
Consider `CCc1cc2c(=O)oc(-c3ccc(Br)cc3)nc2s1` [II-9, 2-(4-Bromo-phenyl)-6-ethyl-thieno[2,3-d][1,3]oxazin-4-one], for which the IC50 stood at 1000 nM, the remaining activity at 1 µM turned out to be 58% and the remaining activity at 5 µM stood at 37%.
With `O=c1oc(-c2ccccc2Cl)nc2sc3c(c12)CCC3` [II-10, 6-(2-Chloro-phenyl)-2,3-dihydro-1H-5-oxa-8-thia-7-aza-cyclopenta[a]indene-4-one], the IC50 was determined as 20 nM, the remaining activity at 1 µM worked out at 10% and the remaining activity at 5 µM was 2%.
The like results for `O=c1oc(-c2ccco2)nc2sc3c(c12)CCC3` [II-11, 6-Furan-2-yl-2,3-dihydro-1H-5-oxa-8-thia-7-aza-cyclopenta[a]inden-4-one] were, in that order, 200 nM, 8% and 8%.
The like results for `O=c1oc(-c2ccccc2)nc2sc3c(c12)CCC3` [II-12, 6-Phenyl-2,3-dihydro-1H-5-oxa-8-thia-7-aza-cyclopenta[a]inden-4-one] were, in that order, 200 nM, 19% and 16%.
For `O=c1oc(-c2ccc(F)cc2)nc2sc3c(c12)CCC3` [II-13, 6-(4-Fluoro-phenyl)-2,3-dihydro-1H-5-oxa-8-thia-7-aza-cyclopenta[a]inden-4-one] the same measures were 300 nM, 37% and 14%.
For `O=c1oc(-c2cccs2)nc2sc3c(c12)CCC3` [II-14, 6-Thiophen-2-yl-2,3-dihydro-1H-5-oxo-8-thia-7-aza-cyclopenta[a]inden-4-one], the IC50 came to 300 nM, the remaining activity at 1 µM was determined as 37% and the remaining activity at 5 µM came to 21%.
